Patent US20250129083A1, “IMIDAZOTETRAZINE COMPOUNDS AND TREATMENT OF TMZ-RESISTANT CANCERS” (THE BOARD OF TRUSTEES OF THE UNIVERSITY OF ILLINOIS, priority 2022, published 2025)
Read-outs that look alike come from different tables or passages of the source.

Tests used:
HCT116 cells = test: Cell viability assay (Alamar Blue, 7 days), HCT116; format: cell-based; conditions: Homo sapiens, HCT-116, 168 h; MGMT (−) MMR (−); 7 days; read-out: Activity, HCT116
Protocol: (§1) Cell Culture and Reagents. All cell lines were grown in a 37° C., 5% CO2, humidified environment, in media containing 1% penicillin/streptomycin. Stable cell line generation of GL261 MGMT+ was purchased from Creative Biogene. Cell culture conditions are as follows: cell lines U87, T98G, and RKO were grown in EMEM with 10% FBS. D54, GL261, GL261 MGMT+, and U118MG cell lines were grown in DMEM with 10% FBS. HCT116 cells were grown in RMPI with 10% FBS. D341 Med cells were grown in EMEM with 20% FBS. Temozolomide (TMZ) was purchased from AK Scientific. TMZ analogues were synthesized as described below. Compounds were dissolved in DMSO (1% final concentration, Fisher Chemical) for cell culture studies.
(§2) Cell Viability Assays. Cells were harvested, seeded in a 96-well plate and allowed to adhere. After three hours, compound was added to each well in DMSO (1% final concentration). Cells were incubated for seven days (unless otherwise noted) before viability was assessed by the Alamar Blue assay. Raptinal (20 μM) was used as a dead control.

GL261 MGMT+ cells = test: Cell viability assay (Alamar Blue, 7 days), GL261 MGMT+; format: cell-based; conditions: Mus musculus, GL261, 168 h; MGMT (+) MMR (+); 7 days; 1500 c/w; SEM, n=3; read-out: Activity, GL261 MGMT+
Protocol: To further explore the ability of CPZ to evade MGMT-mediated resistance, MGMT-expressing T98G cells were pretreated with MGMT inhibitor O6BG followed by treatment with TMZ or CPZ. […] This cell death potentiation by TMZ upon treatment with an MGMT inhibitor was also observed in MGMT-expressing cell lines U118MG and RKO, whereas the efficacy of CPZ was again unaffected. For MGMT (−)/MMR (−) HCT116 cells, negligible potentiation of TMZ cytotoxicity was observed upon pretreatment with O6BG, confirming that loss of MMR capacity, not MGMT expression, was responsible for resistance to TMZ in HCT116 cells. Additionally, human MGMT was knocked into the MGMT-negative mouse glioma cell line, GL261, establishing the novel cell line GL261 MGMT+.
as §1, §2
(§3) Plated 1500 c/w for GL261; 600 c/w for U87; 600 c/w for U118MG; 1500 c/w for GL261 MGMT+ Incubated ovn and added 1 μL of compound in DMSO the next day. Incubated over 7 days; added Alamar Blue to assess cell viability and used 10 μM Raptinal as dead control. Error is SEM, n=3.

[1] = system: S. typhimurium TA100 strain; test: Ames test, TA100; format: cell-based; conditions: 30 μM
Protocol: (§4) Next, we measured the mutagenicity of CPZ versus TMZ. TMZ and other DNA methylating chemotherapies are known mutagens, inducing G:C→A:T mutations due to erroneous recognition of O^6-methylguanine. […] CPZ and TMZ (at 30 μM) were also assessed in the E. coli WP2 uvrA pKM101 strain, which is considered one of the more sensitive Ames tester strains available.
Ames Test. Compounds were assessed at the indicated concentrations in the TA100 tester strain using the Muta-ChromoPlate 96-well microplate version of the Ames test (Environmental Bio-Detection Products, Prod. No. 5051) according to manufacturer's instructions. In brief, TA100 S. typhimurium bacteria were grown overnight and plated with compound, growth medium, and indicator (no S9 activation) in 96 well plates. Bacteria were incubated for 5 days before the number of wells per 96 well plate containing revertant colonies were identified colorimetrically.

[2] = Solubility in IV formulations; format: physicochemical; conditions: IV formulation
[3] = system: RKO colon cancer cell line; test: Cell viability assay (Alamar Blue, 7 days), RKO; format: cell-based; conditions: 168 h; 7 days; read-out: Activity, RKO
Protocol: as §1, §2

[4] = system: E. coli WP2 uvrA pKM101 strain; test: Ames test, E. coli WP2 uvrA pKM101; format: cell-based; conditions: 30 μM
Protocol: as §4

U87 GBM cell line = test: Cell viability assay (Alamar Blue, 7 days), U87; format: cell-based, human; conditions: Homo sapiens, 168 h, MGMT (−) MMR (+), 600 c/w, SEM, n=3, read-out: Activity, U87
Protocol: as §1, §2, §3

[5] = Hydrolytic stability studies; format: physicochemical; conditions: PBS, pH 7.4, 37° C.; HPLC
Protocol: Hydrolytic Stability Studies. Compound (100 μM) was incubated at 37° C. in PBS at pH 7.4 (unless otherwise noted). At the indicated time point, an aliquot was collected and analyzed by HPLC. Compound peaks were integrated and compared to the integration at to calculate the percentage of prodrug remaining.

GL261 cells = test: Cell viability assay (Alamar Blue, 7 days), GL261; format: cell-based; conditions: Mus musculus, GL261, 168 h; MGMT (−) MMR (+); 7 days; 1500 c/w; SEM, n=3; read-out: Activity, GL261
Protocol: as §1, §2, §3

U118MG cells = test: Cell viability assay (Alamar Blue, 7 days), U118MG; format: cell-based; conditions: Homo sapiens, U-118-MG, 168 h, MGMT (+) MMR (+), 600 c/w, SEM, n=3
Protocol: as §1, §2, §3

[6] = Maximum tolerated dose / tolerability in mice; format: in vivo; conditions: for MTD at 5 days: in vivo, 66 mg/kg, once per day over 5 days
cancer cells = test: Rapid cancer cell death phenotype; format: cell-based; conditions: relative to TMZ
Source text: FIG. 8A-C. Rapid Cancer Cell Death Phenotype.

[7] = Syngeneic subcutaneous model; format: in vivo; conditions: C57BL/6 mice, 1×10^6 cells; 50 mg/kg IV 1×/day over 5 days from day 5
Protocol: FIG. 10A-B. Syngeneic Subcutaneous Model (A, B). TABZ and TMZ in vivo: C57BL/6 mice were inoculated with 1×10^6 cells and treated xl/day over 5 days with either vehicle, TMZ, or TABZ (via IV, 50 mg/kg, starting on day 5).

Brain tissue binding = format: in vitro ADME; conditions: 10 uM, 1 h at 37 C in brain tissue homogenate
[8] = Hepatic metabolism: stability in mouse liver microsomes; format: in vitro ADME
[9] = 6.6 mg/mL solution for 200 μL injection

CC#CCn1nnc2c(C(=O)N(C)C)ncn2c1=O [TABZ, 3-(but-2-yn-1-yl)-N,N-dimethyl-4-oxo-3,4-dihydroimidazo[5,1-d][1,2,3,5]tetrazine-8-carboxamide]
IC50 (HCT116 cells): 6 ± 0.42 µM
IC50 (GL261 MGMT+ cells): 18 ± 1 µM
Mutagenicity, TA100 [1]: non-mutagenic
Solubility in 20/80 DMSO/PBS ([2]; 5 mg/mL solution for 100 μL injection): Soluble*
Solubility in 15/7/5/73 DMSO/NMP/T20/20% SPE-βCD [2, 9]: Soluble >25 min
Solubility in 15/10/75 DMSO/NMP/20% SPE-βCD [2, 9]: Soluble 20 min
IC50 [3]: 9 ± 1 µM
Mutagenicity, E. coli WP2 uvrA pKM101 [4]: non-mutagenic
IC50 (U87 GBM cell line): 16 ± 2 µM
Hydrolytic stability: percentage of prodrug remaining after 2 hours [5]: 31±1%
IC50 (GL261 cells): 35 ± 2 µM
IC50 (U118MG cells): 24 ± 5 µM
Tolerated dose, 1×/day via IV injection [6]: 50 mg/kg
MTD at 5 days ([6]; female, C57BL/6, mouse, ip, intraperitoneal, read-out: MTD, I.P.): 66 mg/kg
MTD at 5 days ([6]; mouse, intravenous, read-out: MTD, I.V.): 66 mg/kg
Speed of cell death induction (cancer cells): induce cell death quickly relative to TMZ
Tumor growth [7]: no exacerbation
Brain tissue binding, insoluble fraction, tissue homogenizer (Brain tissue binding): 40 ± 4%
Brain tissue binding, insoluble fraction, ultrasonication (Brain tissue binding): 39 ± 4%
Brain tissue binding, soluble fraction, tissue homogenizer (Brain tissue binding): 64 ± 4%
Brain tissue binding, soluble fraction, ultrasonication (Brain tissue binding): 61 ± 4%
Stability (2 h, with MLM) ([8]; percentage remaining relative to t0, mouse liver microsomes, SEM, n ≥ 2): 77 ± 2%
Stability (2 h, no MLM) ([8]; percentage remaining, microsomes replaced with PBS): 87 ± 2%
